Values of other authors as cited in patent publication US5559121A, “Rapamycin formulations for oral administration” (American Home Products Corporation, priority 1995, dated 1996).

Legend:
[1] = test system: Microsporum gypseum
[2] = test system: thymocyte proliferation; settings: in vitro
[3] = test system: adjuvant arthritis; settings: Martel 1977
[4] = test system: IgE-like antibodies; settings: Martel 1977
[5] = test system: tumor; settings: U.S. Pat. No. 4,885,171 (alone); U.S. Pat. No. 4,401,653 (with picibanil)
[6] = in vivo
[7] = test system: insulin dependent diabetes mellitus; settings: Fifth Int. Conf. Inflamm. Res. Assoc. 121 (1990)
[8] = test system: smooth muscle cell proliferation and intimal thickening; settings: Morris 1992
[9] = test system: Candida albicans
[10] = test system: allograft rejection; settings: Calne 1989; Morris and Meiser 1989
[11] = test system: experimental allergic encephalomyelitis; settings: Martel 1977
[12] = FASEB 3, 3411 (1989) and others

CO[C@H]1C[C@@H]2CC[C@@H](C)[C@@](O)(O2)C(=O)C(=O)N2CCCC[C@H]2C(=O)O[C@H]([C@H](C)C[C@@H]2CC[C@@H](O)[C@H](OC)C2)CC(=O)[C@H](C)/C=C(\C)[C@@H](O)[C@@H](OC)C(=O)[C@H](C)C[C@H](C)/C=C/C=C/C=C/1C [Rapamycin, rapamycin]
effect on growth of Microsporum gypseum [1]: adversely affects the growth | inhibition of thymocyte proliferation [2]: inhibit thymocyte proliferation in vitro | effectiveness in adjuvant arthritis model [3]: effective | inhibition of the formation of IgE-like antibodies [4]: effectively inhibited the formation of IgE-like antibodies | antitumor activity [5]: antitumor activity | immunosuppressive, antifungal and antiinflammatory activity [6]: immunosuppressive, antifungal and antiinflammatory activity in vivo | preventing or treating insulin dependent diabetes mellitus [7]: useful in preventing or treating | preventing or treating smooth muscle cell proliferation and intimal thickening following vascular injury [8]: useful in preventing or treating | effect on growth of Candida albicans [9]: adversely affects the growth | inhibiting rejection in vivo in allograft transplantation [10]: effectiveness of rapamycin in inhibiting rejection in vivo | effectiveness in experimental allergic encephalomyelitis model [11]: effective | immunosuppressive effects [12]: immunosuppressive effects

C=CC[C@@H]1/C=C(\C)C[C@H](C)C[C@H](OC)[C@H]2O[C@@](O)(C(=O)C(=O)N3CCCC[C@H]3C(=O)O[C@H](/C(C)=C/[C@@H]3CC[C@@H](O)[C@H](OC)C3)[C@H](C)[C@@H](O)CC1=O)[C@H](C)C[C@@H]2OC [FK-506]
immunosuppressive effects [12]: effective as immunosuppressive agents
